Reference: the supplement of paper PMC10307832

Experiments:
Assay in all cases: relative viability (nuclei count vs DMSO), 5 days (fraction); higher = more cells survive
Vemurafenib + Foretinib = compound: CCCS(=O)(=O)Nc1ccc(F)c(C(=O)c2c[nH]c3ncc(-c4ccc(Cl)cc4)cc23)c1F [Vemurafenib] + COc1cc2c(Oc3ccc(NC(=O)C4(C(=O)Nc5ccc(F)cc5)CC4)cc3F)ccnc2cc1OCCCN1CCOCC1 [Foretinib] (partner 0.25 µM)
Outline: (§1)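 Each reported value is a median over duplicate plates. It expresses relative viability: treated-well nuclei count divided by vehicle-well nuclei count. Lung cancer cell lines in 1536-well plates were dosed by pin tool a day after seeding, alone with one drug or with a fixed anchor-drug dose plus five library-drug doses (not always all listed) in √10 steps, and nuclei were counted after 5 days.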

OSI-027 + Luminespib = compound: COc1cccc2cc(-c3nc([C@H]4CC[C@H](C(=O)O)CC4)n4ncnc(N)c34)[nH]c12 [OSI-027] + CCNC(=O)c1noc(-c2cc(C(C)C)c(O)cc2O)c1-c1ccc(CN2CCOCC2)cc1 [Luminespib] (partner 0.01 µM)
Outline: as §1

Alpelisib + Crizotinib = compound: Cc1nc(NC(=O)N2CCC[C@H]2C(N)=O)sc1-c1ccnc(C(C)(C)C(F)(F)F)c1 [Alpelisib] + C[C@@H](Oc1cc(-c2cnn(C3CCNCC3)c2)cnc1N)c1c(Cl)ccc(F)c1Cl [Crizotinib] (partner 1 µM)
Outline: as §1

OSI-027 + Dasatinib = compound: COc1cccc2cc(-c3nc([C@H]4CC[C@H](C(=O)O)CC4)n4ncnc(N)c34)[nH]c12 [OSI-027] + Cc1nc(Nc2ncc(C(=O)Nc3c(C)cccc3Cl)s2)cc(N2CCN(CCO)CC2)n1 [Dasatinib] (partner 0.075 µM)
Outline: as §1

Row | Cell Line | relative viability (Vemurafenib + Foretinib; first compound 0.03162 µM) | relative viability (Vemurafenib + Foretinib; first compound 0.3162 µM) | relative viability (Vemurafenib + Foretinib; first compound 1 µM) | relative viability (OSI-027 + Luminespib; first compound 0.01 µM) | relative viability (OSI-027 + Luminespib; first compound 0.03162 µM) | relative viability (OSI-027 + Luminespib; first compound 0.1 µM) | relative viability (OSI-027 + Luminespib; first compound 0.3162 µM) | relative viability (OSI-027 + Luminespib; first compound 1 µM) | relative viability (Alpelisib + Crizotinib; first compound 0.04 µM) | relative viability (Alpelisib + Crizotinib; first compound 0.1265 µM) | relative viability (Alpelisib + Crizotinib; first compound 0.4 µM) | relative viability (Alpelisib + Crizotinib; first compound 1.265 µM) | relative viability (Alpelisib + Crizotinib; first compound 4 µM) | relative viability (OSI-027 + Dasatinib; first compound 0.01 µM) | relative viability (OSI-027 + Dasatinib; first compound 0.03162 µM) | relative viability (OSI-027 + Dasatinib; first compound 0.1 µM) | relative viability (OSI-027 + Dasatinib; first compound 0.3162 µM) | relative viability (OSI-027 + Dasatinib; first compound 1 µM) | relative viability (Vemurafenib + Foretinib; first compound 0.1 µM)
1 | H3255 | 0.945 | 0.827 | 0.96 | 0.74 | 0.871 | 0.775 | 0.817 | 0.459 | 0.85 | 1.05 | 1.16 | 0.631 | 0.675 | 0.291 | 0.377 | 0.388 | 0.292 | 0.217 | 
2 | NCI-H1993 | 0.793 | 0.98 | 0.823 | 0.815 | 0.795 | 0.71 | 0.498 | 0.548 | 0.817 | 0.845 | 0.799 | 0.603 | 0.604 | 0.516 | 0.543 | 0.469 | 0.541 | 0.549 | 
3 | SW 1573 | 0.906 | 0.955 | 0.891 | 0.235 | 0.19 | 0.184 | 0.214 | 0.13 | 0.867 | 0.784 | 0.689 | 0.649 | 0.593 | 0.379 | 0.456 | 0.477 | 0.494 | 0.331 | 0.893
4 | NCI-H2085 | 0.856 | 1.26 | 0.902 | 0.647 | 0.437 | 0.439 | 0.341 | 0.231 | 0.808 | 0.769 | 0.758 | 0.814 | 0.796 | 0.199 | 0.222 | 0.188 | 0.227 | 0.211 | 0.92
5 | EPLC-272H | 0.614 | 0.873 | 0.685 | 0.38 | 0.267 | 0.147 | 0.2 | 0.228 | 0.75 | 0.788 | 1.09 | 0.713 | 0.653 | 0.336 | 0.314 | 0.36 | 0.268 | 0.102 | 0.435
6 | HARA | 0.858 | 0.945 | 0.559 | 0.683 | 0.839 | 0.706 | 0.449 | 0.22 | 1.04 | 1.03 | 1.15 | 0.845 | 0.622 | 0.227 | 0.247 | 0.25 | 0.253 | 0.209 | 0.634
7 | LU99A | 0.87 | 0.819 | 0.723 | 0.25 | 0.221 | 0.288 | 0.22 | 0.192 | 0.544 | 0.471 | 0.509 | 0.385 | 0.313 | 0.519 | 0.513 | 0.486 | 0.293 | 0.259 | 0.867
8 | NCI-H2087 | 1.02 |  | 1.12 | 0.143 | 0.166 | 0.176 | 0.133 | 0.158 | 0.781 | 0.892 | 0.958 | 0.732 | 0.658 | 0.856 | 0.937 | 0.923 | 0.611 | 0.453 | 0.979
9 | NCI-H1734 | 0.81 | 0.779 | 0.763 | 0.174 | 0.179 | 0.203 | 0.166 | 0.178 | 0.633 | 0.605 | 0.715 | 0.506 | 0.382 | 0.473 | 0.408 | 0.45 | 0.388 | 0.282 | 0.82
10 | NCI-H2170 | 0.907 | 1 | 1.02 | 0.844 | 0.639 | 0.565 | 0.544 | 0.176 | 1.08 | 1.17 | 1.23 | 0.729 | 0.71 | 0.635 | 0.506 | 0.506 | 0.56 | 0.315 | 0.858
11 | PC-3 [JPC-3] | 0.911 | 1.05 | 1.13 | 0.839 | 0.553 | 0.661 | 0.598 | 0.332 | 1.03 | 1.05 | 1.07 | 0.901 | 0.969 | 0.883 | 0.895 | 1.03 | 0.936 | 0.494 | 
12 | ABC-1 | 1.05 | 1.19 | 1.05 |  | 0.321 | 0.405 | 0.377 | 0.386 | 1.19 | 1.28 | 1.04 | 0.886 | 0.713 | 0.656 | 0.516 | 0.384 | 0.486 | 0.216 | 1.16
13 | NCI-H1651 | 0.647 | 0.88 | 0.789 | 0.866 | 0.691 | 1.08 | 0.79 | 0.725 | 0.845 | 0.906 | 0.889 | 0.784 | 0.694 | 0.405 | 0.325 | 0.352 | 0.358 | 0.213 | 0.742
14 | NCI-H1563 | 0.859 | 0.93 | 0.935 | 0.479 | 0.479 | 0.455 | 0.517 | 0.481 | 0.877 | 0.89 | 0.753 | 0.775 | 0.707 | 0.444 | 0.467 | 0.447 | 0.457 | 0.454 | 0.976
15 | NCI-H460 | 0.96 | 0.909 | 1.05 | 0.0335 | 0.032 | 0.0283 | 0.0249 | 0.0266 | 0.855 | 1.02 | 0.926 | 0.285 | 0.296 | 0.568 | 0.462 | 0.37 | 0.243 | 0.158 | 0.982
16 | NCI-H2228 | 0.845 | 0.828 | 0.869 | 0.165 | 0.162 | 0.0954 | 0.122 | 0.111 | 0.514 | 0.402 | 0.403 | 0.303 | 0.304 | 0.506 | 0.467 | 0.568 | 0.445 | 0.24 | 0.931
17 | LOU-NH91 | 0.914 |  | 0.975 | 0.312 | 0.308 | 0.333 | 0.306 | 0.315 | 0.743 | 0.702 | 0.758 | 0.627 | 0.59 | 0.533 | 0.542 | 0.471 | 0.407 | 0.392 | 
